According to ChEMBL document CHEMBL3600285, “Inhibitory Effects of Highly Oxygenated Lanostane Derivatives from the Fungus Ganoderma lucidum on P-Glycoprotein and α-Glucosidase” (J Nat Prod, 2015):

Legend:
[1] = target: ATP-dependent translocase ABCB1 (Homo sapiens, UniProt P08183); experiment: Inhibition of p-glycoprotein in human adriamycin-resistant MCF7 cells assessed as increase of adriamycin accumulation at 20 uM after 1 hr by LC-MS/MS analysis relative to control; type: cell-based; conditions: mcf7, 1 h
Alpha-glucosidase MAL12 = Alpha-glucosidase MAL12 (Saccharomyces cerevisiae S288c, UniProt P53341); experiment: Inhibition of yeast alpha-glucosidase using p-NPG as substrate
Alpha-glucosidase MAL12, sequence (P53341 whole entry): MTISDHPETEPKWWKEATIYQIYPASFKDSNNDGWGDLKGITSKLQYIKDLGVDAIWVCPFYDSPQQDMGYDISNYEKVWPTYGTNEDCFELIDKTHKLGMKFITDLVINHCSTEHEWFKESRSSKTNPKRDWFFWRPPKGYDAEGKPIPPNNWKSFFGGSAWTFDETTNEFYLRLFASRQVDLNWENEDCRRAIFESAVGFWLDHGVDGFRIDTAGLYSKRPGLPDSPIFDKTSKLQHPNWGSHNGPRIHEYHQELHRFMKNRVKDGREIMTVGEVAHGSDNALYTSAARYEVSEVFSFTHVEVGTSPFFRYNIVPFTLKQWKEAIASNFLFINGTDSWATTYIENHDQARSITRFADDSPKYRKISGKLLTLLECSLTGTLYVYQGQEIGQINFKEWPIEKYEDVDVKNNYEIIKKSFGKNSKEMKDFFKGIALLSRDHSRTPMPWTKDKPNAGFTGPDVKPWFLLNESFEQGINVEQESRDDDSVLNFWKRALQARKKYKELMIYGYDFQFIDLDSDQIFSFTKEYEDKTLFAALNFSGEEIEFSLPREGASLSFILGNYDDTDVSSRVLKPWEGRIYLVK

ATP-dependent translocase ABCB1, sequence (P08183 whole entry): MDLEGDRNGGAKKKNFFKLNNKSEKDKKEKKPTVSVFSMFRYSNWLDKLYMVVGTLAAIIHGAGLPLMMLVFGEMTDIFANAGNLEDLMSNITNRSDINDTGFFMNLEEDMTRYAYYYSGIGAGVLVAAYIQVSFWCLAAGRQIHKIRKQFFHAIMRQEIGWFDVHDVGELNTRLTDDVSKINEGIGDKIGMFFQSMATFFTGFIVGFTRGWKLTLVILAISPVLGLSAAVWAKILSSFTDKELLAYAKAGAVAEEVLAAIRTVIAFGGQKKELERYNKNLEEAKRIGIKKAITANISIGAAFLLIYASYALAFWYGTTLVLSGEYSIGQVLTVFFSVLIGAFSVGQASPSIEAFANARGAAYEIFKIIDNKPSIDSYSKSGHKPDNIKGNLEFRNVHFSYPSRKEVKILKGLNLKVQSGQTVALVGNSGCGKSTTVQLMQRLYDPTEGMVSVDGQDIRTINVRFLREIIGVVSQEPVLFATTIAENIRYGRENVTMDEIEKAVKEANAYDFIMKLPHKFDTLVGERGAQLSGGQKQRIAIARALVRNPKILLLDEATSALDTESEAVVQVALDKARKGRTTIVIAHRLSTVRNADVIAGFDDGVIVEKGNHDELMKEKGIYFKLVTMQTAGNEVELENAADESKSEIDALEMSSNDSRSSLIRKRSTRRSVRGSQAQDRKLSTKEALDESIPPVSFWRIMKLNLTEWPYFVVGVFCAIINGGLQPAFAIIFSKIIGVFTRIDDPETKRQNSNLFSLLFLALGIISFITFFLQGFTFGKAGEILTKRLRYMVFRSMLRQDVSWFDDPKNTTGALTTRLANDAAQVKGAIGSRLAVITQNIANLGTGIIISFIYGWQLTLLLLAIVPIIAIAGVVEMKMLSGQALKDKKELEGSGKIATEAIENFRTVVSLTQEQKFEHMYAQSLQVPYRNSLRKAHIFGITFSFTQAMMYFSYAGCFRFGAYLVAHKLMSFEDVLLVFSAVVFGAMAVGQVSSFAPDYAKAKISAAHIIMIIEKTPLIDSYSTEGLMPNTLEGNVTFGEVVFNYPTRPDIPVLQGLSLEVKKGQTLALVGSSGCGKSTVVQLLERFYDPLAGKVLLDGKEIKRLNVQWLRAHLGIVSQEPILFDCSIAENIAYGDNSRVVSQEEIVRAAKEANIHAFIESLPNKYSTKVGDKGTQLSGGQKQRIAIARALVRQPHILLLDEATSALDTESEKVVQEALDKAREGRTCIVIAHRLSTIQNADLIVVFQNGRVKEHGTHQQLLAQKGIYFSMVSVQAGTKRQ

Ratio [1] | IC50 (Alpha-glucosidase MAL12) [µM] | Structure (SMILES)
3 | 119 | C/C(=C\CC[C@@H](C)[C@H]1CC[C@@]2(C)C3=C([C@@H](O)C[C@]12C)[C@@]1(C)CCC(=O)C(C)(C)[C@@H]1CC3=O)C(=O)O
3 | – | COc1ccc(CCN(C)CCCC(C#N)(c2ccc(OC)c(OC)c2)C(C)C)cc1OC (stereo not given)
3 | – | COC(=O)CC[C@@H](C)[C@H]1CC(=O)[C@@]2(C)C3=C(C(=O)C[C@]12C)[C@@]1(C)CCC(=O)C(C)(C)[C@@H]1CC3=O [METHYL LUCIDENATE F]

Second part, the molecule before the results:

Structure (SMILES) | Ratio [1] | IC50 (Alpha-glucosidase MAL12) [µM]
CC1(C)C(=O)CC[C@]2(C)C3=C([C@@H](O)C[C@@H]12)[C@]1(C)C(=O)C[C@H]([C@]2(C)CCC(=O)O2)[C@@]1(C)[C@@H](O)C3=O | 3 | –
CC1(C)[C@@H](O)CC[C@]2(C)C3=C([C@@H](O)C[C@@H]12)[C@]1(C)C(=O)C[C@H]([C@]2(C)CCC(=O)O2)[C@@]1(C)[C@H](O)C3=O | – | 41.7
CC1(C)[C@@H](O)CC[C@]2(C)C3=C([C@@H](O)C[C@@H]12)[C@]1(C)C(=O)C[C@H]([C@]2(C)CCC(=O)O2)[C@@]1(C)C(=O)C3=O | 3 | 91.3
C[C@H](C(=O)O)[C@H]1CC(=O)[C@@]2(C)C3=C(C(=O)C[C@]12C)[C@@]1(C)CCC(=O)C(C)(C)[C@@H]1CC3=O | – | 145
CC1(C)C(=O)CC[C@]2(C)C3=C(C(=O)C[C@@H]12)[C@]1(C)C(=O)C[C@H]([C@]2(C)CCC(=O)O2)[C@@]1(C)CC3=O | – | 81.8
